Reference: patent publication US12624123B2, “Compositions and methods for reducing off-target toxicity of antibody drug conjugates” (The Research Foundation for The State University of New York, priority 2019, dated 2026)
“And” between values parts separate entries of the source, which are not always exact repeats. Identical values can stand only once. “Also recorded” adds a separate entry of the source. Like-named read-outs stand apart in the source and are kept apart here. Square brackets hold non-standard residues; d marks the D form. Peptide text beside a SMILES is read from it. * marks the point of attachment. Dolaproine = CO[C@@H]([C@@H]1CCCN1)[C@@H](C)C(=O)O; Dil = CC[C@H](C)[C@H](NC)[C@@H](CC(=O)O)OC; X1 = C[C@@H](N*)[C@@H](O)c1ccccc1; NMeV = CN[C@H](C(=O)O)C(C)C

What was measured:
[1] = biological target: 8C2 Fab; assay: Competitive SPR assay on exatecan chip; format: binding; settings: 5 nM Fab, 1 hour incubation
Description: Exatecan was immobilized onto a CMS chip through amine coupling. […] Dilutions were incubated for one hour and subsequently injected over the exatecan immobilized chip. The observed maximum response data was fit to a 3 parameter inhibition equation in GraphPad Prism 7.
B/Bo is signal reached after a 3.5 minute injection with spiked in drugs divided by signal with Fab alone.

[2] = system: SKBR3 cells; assay: Competitive cell assay with SKBR3 cells; format: cell-based
Description: SKBR3 cells were diluted to 4000 cells/100 μL and 100 μL was added to individual wells of a 96 well culture plate. Cells were incubated overnight to allow cells to adhere to the plate. […] Dxd and SN38 were diluted at the indicated concentrations and incubated for 90 minutes. Following incubation dilutions were added to individual wells in triplicate with fresh media dilutions added on day 1, 3 and 5 with cell viability evaluated on day 7 using an MTT assay.

[3] = system: HT-29 cells; assay: Competitive cell cytotoxicity (MTT) assay with HT-29 cells; format: cell-based; settings: in absence of 8C2, read-out: IC50 of SN38
Description: (§1) Log-phase MOLM-14, Ramos (RA 1), HT-29, LS174T, or NCI-N87 cells were seeded in 96-well microtiter plates at a density of 20,000 cells/well, 20,000 cells/well, 5,000 cells/well, 5,000 cells/well, and 10,000 cells/well, respectively, in 100 μL of culture medium. HT-29, LS174T, and NCI-N87 cells were allowed to adhere for 24 h before cell culture media was aspirated and replaced with 100 μL of fresh media containing a range of treatment for, 48 (LS174T), 96 (NCI-N87), or 120 (HT-29) h. MOLM-14 and Ramos cells were re-suspended with treatment solutions, where 100 μL of cell-treatment suspension was aliquoted into wells of a 96-well plate for 24 h. Treatment solutions consisted of calicheamicin, MMAE, topotecan, or SN38 with or without immunized animal plasma, purified anti-drug antibody, or antibody-drug conjugate (ADC) with or without plasma or anti-drug antibody. For MOLM-14 and Ramos cells, 25 μL of MTT solution (5 mg/mL in pH 7.4 1× PBS) was added directly to wells following treatment incubation. For adherent cells, treatment media was aspirated from wells and cells were washed three times with 100 μL of fresh media. Following the final wash, 100 μL of complete media and 25 μL of MTT solution were added to each well.

[4] = system: 8C2 mAb; assay: Competitive ELISA of 8C2 with topotecan and SN38 (BSA-topotecan coated); format: binding, murine; settings: 8C2 held constant at 10 nM; read-out: IC50 in competitive ELISA vs intact 8C2
Description: A competitive ELISA was employed to determine the affinity of intact 8C2 mAb for SN38 and topotecan. A BSA-topotecan conjugate was synthesized and immobilized as previously described (Shah et al., Int J Pharm. 2014; 465(1-2):228-238. doi:10.1016/j.ijpharm.2014.01.038) 8C2 concentration was held constant at 10 nM with increasing concentrations of topotecan or SN38. 8C2 drug samples were incubated for 2 hours at room temperature with agitation. Following incubation, wells were washed three times with 250 μL of PBS-T and three times with dH2O. Wells were then incubated with a 1:500 dilution anti-mouse AP conjugate secondary in PBS-T with 3% BSA for 1 h. After washing, 250 μL of 4 mg/ml PNPP in diethanolamine buffer pH 9.8 with absorbance being read at 405 nm. The change in absorbance over time data was fit to a four-parameter function in GraphPad Prism 7.

[5] = system: Lovo cells; assay: MTT cytotoxicity of DM1 and DM4 on Lovo cells; format: cell-based; settings: for IC50: DM4 alone, read-out: IC50 of DM4
Description: Log-phase Lovo or MOLM-14 cells were seeded in 96-well microtiter plates at a density of 5,000 cells/well, in 100 μL or 70 μL of culture medium, respectively. […] MOLM-14 cells were re-suspended with treatment solutions, where 100 μL of cell-treatment suspension was aliquoted into wells of a 96-well plate for 24 h. Treatment solutions consisted of DM-4 with or without purified anti-drug sdAb. For MOLM-14 cells, 10 μL of MTT solution (5 mg/mL in pH 7.4 1× PBS) was added directly to wells following treatment incubation. For adherent cells, treatment media was aspirated from wells and cells were washed three times with 100 μL of fresh media. Following the final wash, 100 μL of complete media and 25 μL of MTT solution were added to each well. Cells were incubated for 4 h in order to allow cells to reduce MTT to formazan dye. Once MTT was reduced, 100 μL of 10% SDS prepared in 0.01 M HCl was added to each well and incubated overnight to solubilize the formazan crystals. Formazan dye was measured at 570 nm and normalized by cell debris at 690 nm.

[6] = system: MOLM-14 cells; assay: MTT cytotoxicity of DM4 on MOLM-14 cells (DF3A2); format: cell-based, human
Description: Log-phase Lovo or MOLM-14 cells were seeded in 96-well microtiter plates at a density of 5,000 cells/well, in 100 μL or 70 μL of culture medium, respectively. Lovo cells were allowed to adhere for 24 h before cell culture media was aspirated and replaced with 100 μL of PBS containing a range of treatment for 6h, then washed for 2 times before replacing with fresh media and incubated for additional 90 h. MOLM-14 cells were re-suspended with treatment solutions, where 100 μL of cell-treatment suspension was aliquoted into wells of a 96-well plate for 24 h. Treatment solutions consisted of DM-4 with or without purified anti-drug sdAb. For MOLM-14 cells, 10 μL of MTT solution (5 mg/mL in pH 7.4 1× PBS) was added directly to wells following treatment incubation. For adherent cells, treatment media was aspirated from wells and cells were washed three times with 100 μL of fresh media. Following the final wash, 100 μL of complete media and 25 μL of MTT solution were added to each well. Cells were incubated for 4 h in order to allow cells to reduce MTT to formazan dye. Once MTT was reduced, 100 μL of 10% SDS prepared in 0.01 M HCl was added to each well and incubated overnight to solubilize the formazan crystals. Formazan dye was measured at 570 nm and normalized by cell debris at 690 nm.

[7] = system: NCI-N87 cells; assay: Cytotoxicity of MMAE and T-vc-MMAE in NCI-N87 cells with or without plasma; format: cell-based; settings: 96 h, MMAE alone
Description: as §1

[8] = SPR dissociation screening on DM1-Biotin chip; format: binding; settings: 20 min dissociation phase
Description: Preliminary screening of DM1/4 binders were performed using a neutravidin SPR chip with DM1-Biotin on the left channel. Phagemid purified sdAbs were flowed over the SPR chip for 2 minutes at a flow rate of 25 ul/min. After binding, sdAb was dissociated for 20 minutes. Observed sensorgrams were fit to an individual dissociation rate constant for each construct. Equilibrium and kinetic binding of 3A2 was assessed using a CM5 SPR chip with TDM1 immobilized on the left channel. […] Rate constants for 3A2-TDM1 association and dissociation were obtained through fitting of the observed sensorgrams for the 1.25, 2.5, 5, 7.5 and 10 nM injections to a 1:1 Langmuir binding model.

[9] = system: NCI-N87 cells; assay: NCI-N87 pulse cytotoxicity assay with C7 sdAb prep; format: cell-based; settings: NCI-N87, 2 h pulse, 96 h with sdAb prep diluted 1:6.67
Description: FIG. 43. Purification of C7 sdAb from BL21(DE3) transformed E. coli cells and inhibitory cell cytotoxicity assays. C7 sdAb was expressed to the periplasm using a pelB leader sequence and purified using IMAC Ni-NTA resin. […] Although the product was crude, it was employed in cell cytotoxicity assays. NCI-N87 cells were seeded at a density of 10,000 cells/well and pulse with treatment solutions for 2 h. After treatment removal and washing, cells were incubated for 96 h with sdAb prep, diluted 1:6.67 with fresh culture medium.
From the single domain library, there were nine positive hits from three rounds of panning against BSA-MMAF/T-vc-MMAE. The screening of isolated colonies determined all were inhibited by incubation with free MMAE (FIG. 42), with three >10-fold inhibition. One colony, C7 was selected for infection of BL21(DE3) cells and protein expression.

[10] = 8C2 VHH binding to SN38 immobilized on magnetic beads
Description: The complementarily determining regions of the 8C2 heavy chain were placed into the stable human framework m0 that was reported by Dimitrov et al (PMID 18687338). DNA encoding for the 8C2 VHH was synthesized by GeneArt. DNA sequences were ligated into the Pet22b vector between the XhoI and NdeI restriction enzyme sites. DNA was transformed into Shuffle T7 express E. coli cells and expressed using standard recombinant expression. To evaluate binding activity, 8C2 VHH was incubated with SN38 immobilized onto magnetic beads and bound VHH detected with an anti-HIS tag HRP labeled reporter antibody. Intact 8C2 mAb was incubated alone and in-combination with 8C2 VHH and 8C2 mAb binding evaluated with an anti-mouse IgG HRP reporter antibody.

For `CCc1c2c(nc3ccc(O)cc13)-c1cc3c(c(=O)n1C2)COC(=O)[C@]3(O)CC` [SN38], the “IC50 for inhibition of Fab binding to immobilized exatecan” value [1] was “low-nanomolar”, the IC50 ([2]; viability day 7, read-out: IC50 of free SN38) was 1.4 nM and the IC50 [3] was 8 nM. For the same molecule, the IC50 [4] was 10.3 nM.

With `CC[C@@]1(O)C(=O)OCc2c1cc1n(c2=O)Cc2c-1nc1cc(F)c(C)c3c1c2[C@@H](NC(=O)CO)CC3` [Dxd] the “IC50 for inhibition of Fab binding to immobilized exatecan” value [1] was “low-nanomolar” and the IC50 ([2]; viability day 7, read-out: IC50 of Dxd alone) was 0.7 nM.

For `COc1cc2cc(c1Cl)N(C)C(=O)C[C@H](OC(=O)[C@H](C)N(C)C(=O)CCC(C)(C)S)[C@]1(C)O[C@H]1[C@H](C)[C@@H]1C[C@@](O)(NC(=O)O1)[C@H](OC)/C=C/C=C(\C)C2` [DM4], the IC50 ([5]; 6 h exposure) was 7.7 nM and 21.5 nM, the IC50 ([5]; 24 h exposure) was 0.713 nM and 1.84 nM and the IC50 ([6]; DM4 alone) was 18 nM and 18.4 nM.

`CC[C@H](C)[C@@H]([C@@H](CC(=O)N1CCC[C@H]1[C@H](OC)[C@@H](C)C(=O)N[C@H](C)[C@@H](O)c1ccccc1)OC)N(C)C(=O)[C@@H](NC(=O)[C@@H](NC)C(C)C)C(C)C` [MMAE, monomethyl auristatin E] (H-[NMeV]V[Dil][Dolaproine]-X1) gave an IC50 [7] of 0.496 ± 0.0327 nM.

B1: DF3A2 (protein)
VHH: QVQLQESGGGLVQPGGSLRLSCAASGGIFGISYMGWYRQAPGKQREPVALITSGGDTAYGDSVKGRFAISRDNAKNTVYLQMNSLKPDDTSAYYCAAGFYRSDSPNRYDYWGQGTQVTVSS
modifications: DF3A2
For B1, the “fold shift of DM4 IC50” value ([5]; 6 h exposure) was 11 fold, the “fold inhibition of DM4 cytotoxicity” value [6] was 2.1 fold and the dissociation kinetics [8] was “longest dissociation rates; also recorded: longer dissociation rates”.

B2: MC7 (protein)
VHH: QVQLVQSGGGLVQAGGSLRLSCVASGRTFSMYRMGWFRQAPGKEREFVASIRWSGGSTYYTDSVKDRFTISRDNAKNTVYLQMNSLKPEDTAVYYCAADPVWRLNSWYRGAVGYWGQGTQVTVSS
modifications: MC7
In the case of B2, the “fold enhancement of T-vc-MMAE cytotoxicity” value [9] is reported as 5.2 fold and the “fold inhibition of MMAE cytotoxicity” value [9] is reported as 5.6 fold.

B3: 8C2 VHH: heavy chain CDRs of 8C2 placed into a stable human framework, SEQ ID NO:69 (protein)
VHH: QVQLVQSGGGLVQPGGSLRLSCAASGFNIKDTYIHWMSWVRQAPGKGLEWVSPDLANDNTKYDPKYYADSVKGRFTISRDNSKNTLYLQMNTLRAEDTAVYYCATWGAIITLGGWGQTMVTVSS
modifications: 8C2 VHH
In the case of B3, the “increase in binding signal vs beads with blank buffer” value ([10]; anti-HIS detection) is reported as 2 × and the “decrease of 8C2 mAb binding by addition of 8C2 VHH” value ([10]; anti-mouse IgG detection) is reported as about 2 fold.
